Test results as given in patent US7250425B2, “8-aza-bicyclo[3.2.1]octane derivatives and their use as monoamine neurotransmitter re-uptake inhibitors” (priority 2003, dated 2007).
Counter-ions that a name gives are not always drawn.

Tests used:
[1] = molecular target: T1, reuptake of dopamine (DA) in synaptosomes (Rattus norvegicus, UniProt P23977); assay: In vitro inhibition of dopamine reuptake in synaptosomes; assay type: biochemical
T1 construct: in synaptosomes as described in WO 97/16451; from tissue
Method: (§1) A number of compounds were tested for their ability to Inhibit the reuptake of the monoamine neurotransmitters dopamine (DA) noradrenaline(NA) and serotonin (5-HT) in synaptosomes as described in WO 97/16451.
(§2) The test values are given as IC50 (the concentration (μM) of the test substance which inhibits the specific binding of ^3H-DA, ^3H-NA, or 3H-5-HT by 50%).

[2] = molecular target: T2, reuptake of serotonin (5-HT) in synaptosomes (Rattus norvegicus, UniProt P31652); assay: In vitro inhibition of serotonin reuptake in synaptosomes; assay type: biochemical
T2 construct: in synaptosomes as described in WO 97/16451; from tissue
Method: as §1, §2

T1 sequence (P23977 whole entry): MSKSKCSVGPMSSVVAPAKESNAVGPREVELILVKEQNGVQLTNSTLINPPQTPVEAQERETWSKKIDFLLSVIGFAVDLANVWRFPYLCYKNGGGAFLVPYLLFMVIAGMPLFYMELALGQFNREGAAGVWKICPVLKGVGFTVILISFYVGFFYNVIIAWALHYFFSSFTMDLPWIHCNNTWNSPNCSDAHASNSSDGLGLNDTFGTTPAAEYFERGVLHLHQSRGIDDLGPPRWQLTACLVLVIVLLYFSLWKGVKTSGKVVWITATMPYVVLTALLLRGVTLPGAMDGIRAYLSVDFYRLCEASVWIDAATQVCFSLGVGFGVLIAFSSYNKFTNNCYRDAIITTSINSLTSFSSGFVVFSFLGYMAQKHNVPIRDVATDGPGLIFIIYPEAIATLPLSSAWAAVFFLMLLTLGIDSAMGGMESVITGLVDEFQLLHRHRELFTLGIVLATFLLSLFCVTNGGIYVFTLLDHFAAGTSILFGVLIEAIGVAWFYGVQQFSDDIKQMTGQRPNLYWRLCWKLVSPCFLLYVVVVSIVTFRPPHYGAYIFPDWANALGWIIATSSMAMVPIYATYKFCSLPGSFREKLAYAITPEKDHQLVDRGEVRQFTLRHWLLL
T2 sequence (P31652 whole entry): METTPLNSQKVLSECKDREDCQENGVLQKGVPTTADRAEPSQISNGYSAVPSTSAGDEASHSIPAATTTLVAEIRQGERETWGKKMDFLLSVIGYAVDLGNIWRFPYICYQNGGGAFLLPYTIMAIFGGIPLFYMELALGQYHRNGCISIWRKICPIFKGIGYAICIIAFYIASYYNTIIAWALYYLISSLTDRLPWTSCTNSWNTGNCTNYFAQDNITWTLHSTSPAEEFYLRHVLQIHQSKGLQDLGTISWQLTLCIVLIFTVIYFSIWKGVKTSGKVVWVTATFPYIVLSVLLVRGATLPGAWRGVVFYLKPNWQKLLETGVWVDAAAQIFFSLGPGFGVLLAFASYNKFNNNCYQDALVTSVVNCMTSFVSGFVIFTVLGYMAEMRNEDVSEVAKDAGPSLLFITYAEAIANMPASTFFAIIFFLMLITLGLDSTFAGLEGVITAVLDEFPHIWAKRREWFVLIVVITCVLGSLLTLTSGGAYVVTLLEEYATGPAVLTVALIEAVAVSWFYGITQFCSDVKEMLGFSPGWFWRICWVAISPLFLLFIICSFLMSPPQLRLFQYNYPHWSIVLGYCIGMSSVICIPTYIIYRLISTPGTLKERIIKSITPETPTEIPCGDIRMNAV

Row | SMILES | IC50 [1] [nM] | IC50 [2] [nM]
1 | CN1C2CCC1[C@H](COc1cccc(Cl)c1Cl)[C@@H](c1cccc(Cl)c1)C2 (stereo partly drawn) [1st compound of method D, (2R,3S)-2-(2,3-Dichlorophenoxymethyl)-8-methyl-3-(3-chlorophenyl)-8-aza-bicyclo[3.2.1]octane fumaric acid salt] | 62 | 0.72
2 | Clc1cccc(C2CC3CCC(N3)C2COc2cccc(Cl)c2Cl)c1 [1st compound of method E, (2R,3S)-2-(2,3-Dichlorophenoxymethyl)-8-H-3-(3-chlorophenyl)-8-aza-bicyclo[3.2.1]octane fumaric acid salt] | 100 | 6.2
3 | Clc1cccc(C2CC3CCC(N3)C2COc2cccc3ccccc23)c1 [2nd compound of method E, (2R,3S)-2-(1-naphthyloxymethyl)-8-H-3-(3-chlorophenyl)-8-aza-bicyclo[3.2.1]octane fumaric acid salt] | 88 | 13
